ChEMBL document CHEMBL5725497, “Cyclohexyl pyridine derivative” (2017)

Target: Substance-P receptor (Homo sapiens, UniProt P25103)
Assay: Receptor Binding Assay: The buffer solution for the receptor binding test was dispensed to the wells of a 96-well assay plate (Greiner) at 22.5 μL/well. DMSO solutions of a test compound, which were prepared at an 80-time higher concentration using 100% dimethyl sulfoxide (DMSO), were added to the wells at 2.5 μL/well (final concentrations of 1 nM to 100 nM), and the solutions were mixed. As a radiolabeled ligand, 125I-substance P (Substance P, [125I]Tyr8-, PerkinElmer) was used. 125I-substance P was diluted with the buffer solution for the receptor binding test to a concentration resulting in 125 pmol/25 μL/well and added to the 96-well assay plate, and the solutions were mixed. The membrane fraction prepared from the human NK1 receptor-expressing cells was diluted with the buffer solution for the receptor binding test to a concentration resulting in 8 to 10 μg/well, suspended until the suspension became in such a homogenous state that the suspension could flow through a 27 G injection needle smoothly and then added to the 96-well assay plate at 150 μL/well. Then, the plate was incubated at room temperature for 60 minutes while shaking the plate. […]

Substance-P receptor, sequence (P25103 whole entry): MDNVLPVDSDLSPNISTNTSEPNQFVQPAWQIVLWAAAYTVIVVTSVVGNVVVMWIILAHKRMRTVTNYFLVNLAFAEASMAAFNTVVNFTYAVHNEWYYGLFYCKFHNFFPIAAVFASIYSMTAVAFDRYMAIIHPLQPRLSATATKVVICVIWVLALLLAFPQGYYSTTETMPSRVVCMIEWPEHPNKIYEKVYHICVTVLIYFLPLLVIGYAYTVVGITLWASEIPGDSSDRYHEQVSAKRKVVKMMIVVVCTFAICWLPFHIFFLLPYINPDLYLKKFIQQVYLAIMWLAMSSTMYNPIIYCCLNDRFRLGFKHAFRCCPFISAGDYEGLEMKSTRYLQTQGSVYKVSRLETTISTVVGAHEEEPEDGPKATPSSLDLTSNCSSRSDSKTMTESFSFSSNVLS

IC50: 5.51 nM
SMILES: Cc1cc(F)ccc1-c1cc(C2CCC(CC(=O)O)CC2)nc(Cl)c1N(C)C(=O)C(C)(C)c1cc(C(F)(F)F)cc(C(F)(F)F)c1 (stereo unspecified)
